# Results from patent US8455397B2, “Penoxsulam as a turfgrass, vineyard and orchard floor herbicide” (Dow AgroSciences, LLC, priority 2005, dated 2013).
# Legend:
# [1] = tested on: buckhorn plantain (PLALA); assay: Postemergent granule herbicides, turfgrass field studies; assay type: in vivo, Plantago lanceolata L.; settings: Table I, 3 sites, Penoxsulam 140 gai/Ha, Scotts Plus 2 1682+841 gae/Ha, Trimec 1121+516+112 gae/Ha
# Procedure: (§1) Field studies were conducted in established turfgrass sites containing a natural population of target broadleaf weeds. Replicated trials, containing a minimum of three replications and having individual plots ranging in size from 25 to 50 ft. sq (2.3 to 4.6 square meters), were initiated in the late spring when turf and weeds were actively growing. Granule treatments were uniformly applied to individual plots using a common hand-shaker method. Applications were made in the early morning when dew was present. Natural rainfall and supplemental irrigation were used to maintain healthy turf and active weed growth throughout the study period. Control of each weed species in the study site was made at 2, 4 and 8 weeks after treatment. Control was determined visually by comparing treated and untreated weeds and scored on a 0 to 100 percent scale where 0 corresponds to no control and 100 corresponds to complete kill.
# [2] = tested on: dandelion (TAROF); assay: as above; assay type: in vivo, Taraxacum officinale
# Procedure: as §1
# [3] = tested on: white clover (TRFRE); assay: Granule carrier/particle size, post emergence greenhouse study; assay type: in vivo, Trifolium repens L.; settings: postemergent greenhouse
# Procedure: (§2) Greenhouse and field studies evaluated the effect of two granule carriers and two particles sizes on the postemergent broadleaf activity of penoxsulam. The two carriers were a 46-0-0 and 28-4-12 fertilizer blend and the particle sizes averaged 0.75 mm and 2.15 mm.
# Greenhouse studies were applied both post and pre-emergence to broadleaf weeds and sedge reared from seed or nutlet in 12.7″ (32.25 cm) by 8.8″ (22.35 cm) flats of a loam soil. Particle size and carrier were evaluated post emergence, carrier comparisons with the smaller particle size of 0.75 was evaluated pre-emergence. Stage of growth of species at post emergence application: PLAMA and TAROF in the 3 to 5 leaf stage, TRFRE in the 3rd tri-foliate stage and CYPES in the 3 to 4 leaf stage. Post emergence trial design was a replicated block, one species per flat, 3 replicate flats per treatment. Granule treatments were uniformly applied to individual flats on an area basis using a common hand-shaker method. Post emergence applications were made to the flat covering both soil and misted foliage. Trial was sub-irrigated daily, and watered over the top 1 time per week starting 7 days after application to simulate a natural rainfall event. Active weed growth was maintained throughout the study period. Weed control of each species in the post emergence study was assessed at 2, 3 and 4 weeks after treatment. Pre-emergence trial design was 2 species per flat, 4 replicate flats, block design. Pre-emergence applications were made to the soil surface using a common hand shaker method on an area basis. Overhead irrigation was maintained throughout the trial. Weed control of each species in the pre-emergence study was assessed at 2, 3, 4 and 5 weeks after application. Control was determined visually by comparing treated and untreated flats and scored on a 0 to 100 percent scale where 0 corresponds to no control and 100 corresponds to complete kill.
# [4] = tested on: white clover (TRFRE); assay: Granule carrier/particle size, postemergent field study; assay type: in vivo, Trifolium repens L.
# Procedure: as §2, §1
# [5] = tested on: Cyperus esculentus (CYPES); assay: Post emergence synergy greenhouse study, penoxsulam + commercial turf granules; assay type: in vivo; settings: 27 Days After Application
# Procedure: Post emergence greenhouse studies were conducted by applying a 0.14% w/w (weight for weight) penoxsulam loaded urea granule alone and in combination with commercial turf granules. The loading for the commercial granules is listed below Table XI. Greenhouse studies were applied on a kilogram of product per hectare basis (KG PR/Ha) post emergence to broadleaf weeds and sedge reared from seed or nutlet in 12.7″ (32.25 cm) by 8.8″ (22.35 cm) flats of a loam soil. Trial design was replicated block, one species per flat, 4 replicate flats per treatment. Post emergence applications were made to the flat covering both soil and misted foliage using a common hand-shaker method distributing the samples uniformly over the flat. Trial was sub-irrigated daily, and watered over the top 1 time per week starting 7 days after application to simulate a natural rainfall event. Active weed growth was maintained throughout the study period. Weed control was assessed at 2, 3 and 4 weeks after treatment. Control was determined visually by comparing treated and untreated flats and scored on a 0 to 100 percent scale where 0 corresponds to no control and 100 corresponds to complete kill.
# [6] = tested on: redroot pigweed (AMARE); assay: Pre-emergence weed nursery field study; assay type: in vivo, Amaranthus retroflexus; settings: weed nursery in the field, 27 Days After Application
# Procedure: (§3) Field studies were conducted in a non-fumigated weed nursery trial. Weed species were planted in single strips with a row planter at 36 centimeter spacing. Plot size was 3.05×9.2 meters, 4 replicate plots per treatment. Weed species were seeded at appropriate depths and later the same day pre-emergent applications were made to the soil surface. Liquid applications were made using a backpack sprayer calibrated to deliver 187 liters per hectare (L/ha). Applications were made in Fresno, Calif. in June. Sprinkler irrigation was applied at regular intervals throughout study period. Control of each weed species in the study site was made 4 weeks after treatment. Control was determined visually by comparing treated and untreated weeds and scored on a 0 to 100 percent scale where 0 corresponds to no control and 100 corresponds to complete kill or no emergence.
# [7] = tested on: common purslane (POROL); assay: Pre-emergence weed nursery field study; assay type: in vivo, Portulaca oleracea; settings: weed nursery in the field, 27 Days After Application
# Procedure: as §3
# [8] = tested on: junglerice (ECHCO); assay: Pre-emergence weed nursery field study; assay type: in vivo, Echinochloa colonum; settings: weed nursery in the field, 27 Days After Application
# Procedure: as §3
# [9] = carrier 28-4-12, particle size 0.75 mm, 11.2 gai/Ha
# [10] = carrier 28-4-12, particle size 0.75 mm, 22.4 gai/Ha
# [11] = carrier 28-4-12, particle size 2.15 mm, 11.2 gai/Ha
# [12] = carrier 28-4-12, particle size 2.15 mm, 22.4 gai/Ha
# [13] = carrier 46-0-0, particle size 0.75 mm, 11.2 gai/Ha
# [14] = carrier 46-0-0, particle size 0.75 mm, 22.4 gai/Ha
# [15] = carrier 46-0-0, particle size 2.15 mm, 11.2 gai/Ha
# [16] = carrier 46-0-0, particle size 2.15 mm, 22.4 gai/Ha
smiles,measurement,setting,value
"COc1cnc(OC)n2nc(NS(=O)(=O)c3c(OCC(F)F)cccc3C(F)(F)F)nc12 [Penoxsulam, 2-(2,2-difluoroethoxy)-N-(5,8-dimethoxy[1,2,4]triazolo[1,5-c]-pyrimidin-2-yl)-6-(trifluoromethyl)benzenesulfonamide]",Mean Percent Weed Control,[1]; 4 Weeks After Treatment,53%
same,Mean Percent Weed Control,[1]; 8 Weeks After Treatment,62%
same,Mean Percent Weed Control,"[2]; Table I, 4 Weeks After Treatment, 5 sites, Penoxsulam 140 gai/Ha, Scotts Plus 2 1682+841 gae/Ha, Trimec 1121+516+112 gae/Ha",93%
same,Mean Percent Weed Control,"[2]; Table I, 8 Weeks After Treatment, 5 sites, Penoxsulam 140 gai/Ha, Scotts Plus 2 1682+841 gae/Ha, Trimec 1121+516+112 gae/Ha",87%
same,Mean Percent Weed Control,"[2]; Table III, 4 Weeks After Treatment, 22.4 gai/Ha, 6 sites",45%
same,Mean Percent Weed Control,"[2]; Table III, 4 Weeks After Treatment, 44.9 gai/Ha, 6 sites",61%
same,Mean Percent Weed Control,"[2]; Table III, 4 Weeks After Treatment, 67.3 gai/Ha, 6 sites",61%
same,Mean Percent Weed Control,"[2]; Table III, 4 Weeks After Treatment, 100 gai/Ha, 6 sites",69%
same,Mean Percent Weed Control,"[2]; Table III, 8 Weeks After Treatment, 22.4 gai/Ha, 6 sites",25%
same,Mean Percent Weed Control,"[2]; Table III, 8 Weeks After Treatment, 44.9 gai/Ha, 6 sites",45%
same,Mean Percent Weed Control,"[2]; Table III, 8 Weeks After Treatment, 67.3 gai/Ha, 6 sites",47%
same,Mean Percent Weed Control,"[2]; Table III, 8 Weeks After Treatment, 100 gai/Ha, 6 sites",57%
same,Percent Weed Control 27-30 DAA,"[3]; carrier 28-4-12, particle size 0.75 mm, 5.6 gai/Ha",40%
same,Percent Weed Control 27-30 DAA,[3]; [9],57%
same,Percent Weed Control 27-30 DAA,[3]; [10],68%
same,Percent Weed Control 27-30 DAA,"[3]; carrier 28-4-12, particle size 2.15 mm, 5.6 gai/Ha",12%
same,Percent Weed Control 27-30 DAA,[3]; [11],38%
same,Percent Weed Control 27-30 DAA,[3]; [12],58%
same,Percent Weed Control 27-30 DAA,"[3]; carrier 46-0-0, particle size 0.75 mm, 5.6 gai/Ha",22%
same,Percent Weed Control 27-30 DAA,[3]; [13],58%
same,Percent Weed Control 27-30 DAA,[3]; [14],72%
same,Percent Weed Control 27-30 DAA,"[3]; carrier 46-0-0, particle size 2.15 mm, 5.6 gai/Ha",5%
same,Percent Weed Control 27-30 DAA,[3]; [15],33%
same,Percent Weed Control 27-30 DAA,[3]; [16],37%
same,Percent Weed Control 26-27 DAA,[4]; [9],80%
same,Percent Weed Control 26-27 DAA,[4]; [10],97%
same,Percent Weed Control 26-27 DAA,[4]; [11],48%
same,Percent Weed Control 26-27 DAA,[4]; [12],70%
same,Percent Weed Control 26-27 DAA,[4]; [13],82%
same,Percent Weed Control 26-27 DAA,[4]; [14],95%
same,Percent Weed Control 26-27 DAA,[4]; [15],34%
same,Percent Weed Control 26-27 DAA,[4]; [16],78%
same,% Control Component A,[5]; 2.4 kg Product/Ha of 0.14% w/w urea granule,16%
same,% Control Component A,[5]; 8.0 kg Product/Ha of 0.14% w/w urea granule,44%
same,Pre-emergent Percent Mean Control,[6]; 8.8 gai/Ha,100%
same,Pre-emergent Percent Mean Control,[6]; 17.5 gai/Ha,100%
same,Pre-emergent Percent Mean Control,[6]; 35 gai/Ha,100%
same,Pre-emergent Percent Mean Control,[6]; 70 gai/Ha,100%
same,Pre-emergent Percent Mean Control,[7]; 8.8 gai/Ha,96%
same,Pre-emergent Percent Mean Control,[7]; 17.5 gai/Ha,97%
same,Pre-emergent Percent Mean Control,[7]; 35 gai/Ha,99%
same,Pre-emergent Percent Mean Control,[7]; 70 gai/Ha,100%
same,Pre-emergent Percent Mean Control,[8]; 8.8 gai/Ha,88%
same,Pre-emergent Percent Mean Control,[8]; 17.5 gai/Ha,94%
same,Pre-emergent Percent Mean Control,[8]; 35 gai/Ha,100%
same,Pre-emergent Percent Mean Control,[8]; 70 gai/Ha,100%
